Assay results reported in patent US20110178104A1, “Anti-Heparin Compounds” (POLYMEDIX INC., priority 2010, published 2011).
pEC50: −log10 of the molar value. In brackets after ≈: the same amount, converted by molar mass. Several values for one entry are separate records, joined by “and”; a condition that tells them apart may be missing. Equal values may be shown once.

Key:
HepG2 cells = assay: Cytotoxicity colorimetric assay, HepG2; type: cell-based, human; set-up: Cytotoxicity HepG2, percent printed in parentheses after the concentration: concentration or dose not given beside the values; conditions: for Cytotoxicity HepG2, percent printed in parentheses after the concentration: at the concentration given
Method in brief: (§1)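 HepG2 cells (3×10^4/well, MEM + 10% FBS) and NIH/3T3 cells (2×10^4/well, DMEM + 10% BCS) were exposed to compound for 1 h in serum-free medium. Viability read by tetrazolium-to-formazan bioreduction after return to serum medium; EC50 from a four-parameter logistic fit.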

[1] = Cytotoxicity colorimetric assay, HepG2; type: cell-based, human; set-up: Cytotoxicity HepG2, percent printed in parentheses after the concentration: concentration or dose not given beside the values; conditions: human, HepG2 cells, one hour in serum-free media
Method in brief: as §1

[2] = tested on: isolated human erythrocytes; assay: cells; type: cell-based; conditions: human RBC, 1 hour at 37° C.; for EC50: Homo sapiens, Erythrocyte, 1 h, read-out: Hemolysis EC50
Method in brief: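 Pooled human red cells, washed and diluted from a 0.22% stock suspension in TBS pH 7.4, were shaken with two-fold dilutions (1000 to 0.48 µg/ml) for 1 h at 37 °C. Released hemoglobin in the supernatant was read at OD405. EC50 came from a four-parameter logistic fit, with melittin as positive control.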

UFH = assay: FXa amidolytic assay (Example 10), UFH; conditions: read-out: Heparin FXa uM EC50; UFH 0.03 units/mL; human antithrombin, bovine Factor Xa
Protocol: (§3) Two μl of test agent are added (range between 0.01 and 23 ug/ml) and incubated for 5 minutes at 23° C. Bovine Factor Xa was added to a final concentration of 0.636 nkat/mL and incubated for a further 10 minutes at 23° C.

enoxaparin [3] = assay: FXa amidolytic assay (Example 10), enoxaparin; conditions: read-out: Enox FXa EC50; enoxaparin 0.1 ug/ml; human antithrombin, bovine Factor Xa
Protocol: as §3

fondaparinux [4] = assay: FXa amidolytic assay (Example 10), fondaparinux; conditions: for pEC50: read-out: Fondap FXa EC50, fondaparinux 0.02 μg/mL, human antithrombin, bovine Factor Xa
Protocol: as §3

tinzaparin = assay: FXa amidolytic assay (Example 10), tinzaparin; conditions: read-out: Tinzap FXa EC50; tinzaparin 0.1 ug/ml; human antithrombin, bovine Factor Xa
Protocol: as §3

Unfractionated heparin = assay: aPTT clotting assay, UFH 0.4 U/mL in plasma (Example 10); type: biochemical; conditions: unfractionated heparin 0.4 U/mL in plasma; aPTT clotting
Protocol: aPTT clotting Assay: Unfractionated heparin was mixed with plasma at a final concentration of 0.4 U/mL (or concentration which increases aPTT time to between 120 and 300 seconds). […] The ACL Elite Hemostasis analyzer (Beckman Coulter™) was used to add aPTT reagent (HemosIL SynthASil) to supplemented plasma. Clotting was initiated by addition of CaCl2 and time to clot was recorded.

NIH/3T3 cells = assay: Cytotoxicity colorimetric assay, NIH/3T3; type: cell-based, mouse; conditions: for Cytotoxicity 3T3, percent printed in parentheses after the concentration: at the concentration given
Protocol: (§2) This assay measures the bioreduction of a novel tetrazolium compound to a soluble formazan product by viable cells. HepG2 cells were seeded in 96 well plates at 3×10^4 cells/well in MEM medium with 10% fetal bovine serum (FBS) 24 hours prior to use. NIH/3T3 cells were seeded in 96 well plates at 2×10^4 cells/well in DMEM medium with 10% bovine calf serum (BCS) 24 hours prior to use. Cell monolayers were rinsed in serum-free media and incubated for one hour with test agent in serum-free media. After incubation, the media was replaced with serum supplemented media and live cells were measured using the Cell Titer 96 Aqueous […] Assay kit (Promega, Madison, Wis.). EC50 values were determined using a four parameter logistic equation: Y=Bottom+(Top-Bottom)/(1+10̂((LogEC50-X)*HillSlope)).

[5] = Cytotoxicity colorimetric assay, NIH/3T3; type: cell-based, mouse; conditions: mouse, NIH/3T3 cells, one hour in serum-free media
Protocol: as §2

fondaparinux [6] = assay: In vivo neutralization of fondaparinux in the rat
Protocol: Compounds were selected to test fondaparinux neutralization in vivo. Rats were pre-treated with fondaparinux administered by IV injection at 0.5 mg/kg. The rats were then treated with a single IV injection of saline, protamine or the PMX compound. Blood was collected via the orbital sinus from three rats per group at the following time points: pre-dose, 1, 3, 10, 30 and 60 min. Plasma samples were prepared for analysis of anti-factor Xa activity using an AMEX Destiny Plus Coagulation Analyzer.

enoxaparin [7] = assay: In vivo neutralization of enoxaparin in the rat; conditions: compared with protamine
Protocol: Compounds were tested for their ability to neutralize enoxaparin coagulation inhibition in rats. Male Sprague-Dawley rats were used in this study (Charles River Laboratories). They were ten-weeks-old at the start of the study and their weights ranged from 319-362 g. Enoxaparin (2 mg/kg) was administered by IV injection to groups of six rats. After 3 min, saline, protamine or a test compound was administered by IV injection. Blood was collected before dosing with enoxaparin, and at 1, 3, 10, 30 and 60 min after dosing with the standard and test compounds. All treatments were dosed in a volume of 1 mL/kg. Blood was collected via the orbital sinus from three rats per group. At each time point, 1 mL of blood was collected from each animal into a single tube. The blood was analyzed using an AMEX Destiny Plus Coagulation Analyzer for activated partial thromboplastin time (APTT) and anti-Factor Xa (low-molecular weight).

| Compound | Cytotoxicity HepG2, percent printed in parentheses after the concentration (HepG2 cells) | EC50 at 1 h [1] | EC50 [2] | EC50 (UFH) | pEC50 (enoxaparin [3]) | pEC50 (fondaparinux [4]) | pEC50 (tinzaparin) | pEC50 (Unfractionated heparin) | Hemolysis EC50 [2] | Cytotoxicity 3T3, percent printed in parentheses after the concentration (NIH/3T3 cells) | EC50 at 1 h [5] | Potent LMWH-antagonists with superior anti-fondaparinux activity (summary) (fondaparinux [4]) | reduction of Factor Xa (anti-factor Xa) levels after fondaparinux (fondaparinux [6]; fondaparinux 0.5 mg/kg IV, test agent 2 and 5 mg/kg IV) | in vivo efficacy versus fondaparinux (summary) (fondaparinux [6]; in vivo) | in vivo efficacy versus LMWH by anti-factor Xa activity (summary) (enoxaparin [7]) | Cytotoxicity HepG2 EC50 (HepG2 cells; one hour in serum-free media) | Cytotoxicity 3T3 EC50 (NIH/3T3 cells; one hour in serum-free media) |
| --- | --- | --- | --- | --- | --- | --- | --- | --- | --- | --- | --- | --- | --- | --- | --- | --- | --- |
| COc1ccc(NC(=O)[C@@H](CCCNC(=N)N)NC(=O)c2cc(NC(=O)[C@@H](CCCNC(=N)N)NC(=O)c3cc(NC(=O)[C@@H](CCCNC(=N)N)NC(=O)c4cc(NC(=O)[C@H](N)CCCNC(=N)N)ccc4OC)ccc3OC)ccc2OCC(=O)O)cc1C(N)=O [Compound 281] | 50% | 1000 µg/mL (≈ 780 µM) | > 1000 µg/mL | 0.108 µM | 6.89 | 6.36 | 6.95 | 5.74 |  |  |  |  |  |  |  |  |  |
| COc1ccc(NC(=O)[C@H](CCCNC(=N)N)NC(=O)c2cc(NC(=O)[C@H](CCCNC(=N)N)NC(=O)c3cc(NC(=O)[C@H](CCCNC(=N)N)NC(=O)c4cc(NC(=O)[C@@H](N)CCCNC(=N)N)ccc4OC)ccc3OC)ccc2OCC(=O)O)cc1C(N)=O [Compound 287] | 30% | 1000 µg/mL (≈ 780 µM) |  |  | 6.94 | 6.40 | 6.97 | 5.70 | no significant decrease | 50% | 1000 µg/mL (≈ 780 µM) |  |  |  |  |  |  |
| COc1ccc(NC(=O)[C@@H](CCCNC(=N)N)NC(=O)c2cc(NC(=O)[C@@H](CCCNC(=N)N)NC(=O)c3cc(NC(=O)[C@@H](CCCNC(=N)N)NC(=O)c4cc(NC(C)=O)ccc4OC)ccc3OC)ccc2OC)cc1C(=O)N[C@H](Cc1ccc(O)cc1)C(=O)O [Compound 297] | 60% | 300 µg/mL (≈ 233 µM) | > 1000 µg/mL | 0.215 µM | 6.53 | 6.65 | 6.50 | 5.15 |  |  |  |  |  |  |  |  |  |
| COc1ccc(NC(=O)[C@H](CCCNC(=N)N)NC(=O)c2cc(NC(=O)[C@H](CCCNC(=N)N)NC(=O)c3cc(NC(=O)[C@H](CCCNC(=N)N)NC(=O)c4cc(NC(=O)[C@@H](N)CCCNC(=N)N)ccc4OC)ccc3OC)ccc2OC)cc1C(=O)N[C@@H](Cc1c[nH]c2ccccc12)C(=O)O [Compound 309] | 50% | 1000 µg/mL (≈ 701 µM) | ~100 µg/mL (≈ 70.1 µM) | 0.301 µM | 6.88 | 6.92 | 6.86 | 5.64 |  | 50% | 1000 µg/mL (≈ 701 µM) |  |  |  |  |  |  |
| COc1cc(OC)c(C(=O)N[C@H]2CC[C@H](NC(=O)c3ccc(OCCCCCNC(=N)N)cc3OCCCCCNC(=N)N)CC2)cc1C(=O)N[C@H]1CC[C@H](NC(=O)c2ccc(OCCCCCNC(=N)N)cc2OCCCCCNC(=N)N)CC1 [Compound 336] |  | 505 µg/mL (≈ 421 µM) | > 1000 µg/mL |  | 7.10 and 7.04 | 7.04 and 7.20 | 6.88 and 7.08 | 5.85 and 5.91 |  |  | 390 µg/mL (≈ 325 µM) | superior anti-fondaparinux activity | significant reductions in anti-Factor Xa activity | in vivo efficacy versus fondaparinux |  |  |  |
| COC(=O)c1cccc(C(=O)N[C@@H](CCCCN)C(=O)Nc2ccc(OC)c(C(=O)N[C@@H](CCCCN)C(=O)Nc3ccc(OC)c(C(=O)N[C@@H](CCCCN)C(=O)Nc4ccc(OC)c(C(=O)N[C@@H](CCCCN)C(=O)Nc5ccc(OC)c(C(N)=O)c5)c4)c3)c2)c1 [Compound 340] | 60% | 1000 µg/mL (≈ 776 µM) |  | 0.292 µM | 6.92 | 6.68 | 6.94 | 6.14 |  | 60% | 1000 µg/mL (≈ 776 µM) |  |  |  |  |  |  |
| COc1ccc(NC(=O)[C@H](CCCCN)NC(=O)c2cc(NC(=O)[C@H](CCCCN)NC(=O)c3cc(NC(=O)[C@H](CCCCN)NC(=O)c4cc(NC(=O)[C@@H](N)CCCCN)ccc4OC)ccc3OC)ccc2OCC(=O)O)cc1C(=O)N[C@@H](Cc1c[nH]c2ccccc12)C(N)=O [Compound 348] |  | > 1000 µg/mL | > 1000 µg/mL | 0.153 µM | 6.92 | 6.58 | 7.17 | 5.62 |  |  | > 1000 µg/mL | superior anti-fondaparinux activity |  |  | superior to protamine |  |  |
| COc1cc(OC)c(C(=O)N[C@H]2CC[C@@H](NC(=O)c3cc(C(=O)NCCN(C)C)c(OCCCCCN)cc3OCCCCCN)CC2)cc1C(=O)N[C@H]1CC[C@@H](NC(=O)c2cc(C(=O)NCCN(C)C)c(OCCCCCN)cc2OCCCCCN)CC1 [Compound 363] |  | > 1000 µg/mL | > 1000 µg/mL | 0.134 µM | 7.17 | 5.97 | 6.95 | 5.99 |  |  | 500 µg/mL (≈ 397 µM) | superior anti-fondaparinux activity |  |  | superior to protamine |  |  |
| COc1cc(OC)c(C(=O)N[C@H]2CC[C@@H](NC(=O)c3ccc(OCCCCCN)cc3OCCCCCN)CC2)cc1C(=O)N[C@H]1CC[C@@H](NC(=O)c2ccc(OCCCCCN)cc2OCCCCCN)CC1 [Compound 369] |  | 280 µg/mL (≈ 271 µM) | > 1000 µg/mL | 0.411 µM | 6.84 | 5.41 | 6.75 | 6.46 |  |  | 100 µg/mL (≈ 97 µM) |  |  |  | superior to protamine |  |  |
| protamine sulfate [reference compound] |  |  |  |  |  |  |  |  | >1000 µg/mL |  |  |  |  |  |  | >1000 µg/mL | >1000 µg/mL |
